Assay results reported in the NIST ThermoML archive (doi:10.1016/j.fluid.2007.06.007).

Test: excess molar enthalpy (molar enthalpy of mixing); xn = mol fraction of the nth substance listed
Conditions: 101 kPa, Liquid, Calvet calorimetry

CCCCn1cc[n+](C)c1.F[P-](F)(F)(F)(F)F [1-butyl-3-methylimidazolium hexafluorophosphate] + CC(C)O
Conditions | excess molar enthalpy [kJ/mol]
288.15 K, x2 = 0.000943 | 0.00893
288.15 K, x2 = 0.001871 | 0.0178
288.15 K, x2 = 0.002806 | 0.0267
288.15 K, x2 = 0.003745 | 0.0353
288.15 K, x2 = 0.004685 | 0.0442
288.15 K, x2 = 0.00562 | 0.0528
288.15 K, x2 = 0.006556 | 0.0611
288.15 K, x2 = 0.007492 | 0.0698
298.15 K, x2 = 0.000909 | 0.00875
298.15 K, x2 = 0.001826 | 0.0175
298.15 K, x2 = 0.002738 | 0.0259
298.15 K, x2 = 0.003654 | 0.0343
298.15 K, x2 = 0.004571 | 0.0429
298.15 K, x2 = 0.005484 | 0.0515
298.15 K, x2 = 0.006398 | 0.0599
298.15 K, x2 = 0.007311 | 0.0684
308.15 K, x2 = 0.000919 | 0.00916
308.15 K, x2 = 0.001837 | 0.0176
308.15 K, x2 = 0.002753 | 0.0255
308.15 K, x2 = 0.003667 | 0.0332
308.15 K, x2 = 0.004579 | 0.0408
308.15 K, x2 = 0.00549 | 0.048
308.15 K, x2 = 0.006399 | 0.0553
308.15 K, x2 = 0.007307 | 0.0624
318.15 K, x2 = 0.000994 | 0.0101
318.15 K, x2 = 0.00201 | 0.0198
318.15 K, x2 = 0.003012 | 0.0288
318.15 K, x2 = 0.004011 | 0.0379
318.15 K, x2 = 0.005009 | 0.0466
318.15 K, x2 = 0.006005 | 0.0557
318.15 K, x2 = 0.006999 | 0.0644
318.15 K, x2 = 0.007991 | 0.0718

CCCCn1cc[n+](C)c1.F[P-](F)(F)(F)(F)F [1-butyl-3-methylimidazolium hexafluorophosphate] + CCCCO
Conditions | excess molar enthalpy [kJ/mol]
288.15 K, x2 = 0.000787 | 0.00833
288.15 K, x2 = 0.001572 | 0.0164
288.15 K, x2 = 0.002356 | 0.0245
288.15 K, x2 = 0.003139 | 0.0324
288.15 K, x2 = 0.003921 | 0.0404
288.15 K, x2 = 0.004701 | 0.0483
288.15 K, x2 = 0.00548 | 0.0561
288.15 K, x2 = 0.006258 | 0.0641
298.15 K, x2 = 0.000761 | 0.00859
298.15 K, x2 = 0.00152 | 0.0168
298.15 K, x2 = 0.002279 | 0.0253
298.15 K, x2 = 0.003036 | 0.0334
298.15 K, x2 = 0.003792 | 0.0414
298.15 K, x2 = 0.004547 | 0.0491
298.15 K, x2 = 0.005301 | 0.0568
298.15 K, x2 = 0.006053 | 0.0643
308.15 K, x2 = 0.000768 | 0.00844
308.15 K, x2 = 0.001541 | 0.0162
308.15 K, x2 = 0.002312 | 0.0235
308.15 K, x2 = 0.003086 | 0.0309
308.15 K, x2 = 0.003861 | 0.0385
308.15 K, x2 = 0.004632 | 0.0461
308.15 K, x2 = 0.005405 | 0.0539
308.15 K, x2 = 0.006177 | 0.0613
318.15 K, x2 = 0.000821 | 0.00952
318.15 K, x2 = 0.001647 | 0.0188
318.15 K, x2 = 0.00247 | 0.028
318.15 K, x2 = 0.003297 | 0.0361
318.15 K, x2 = 0.004125 | 0.0448
318.15 K, x2 = 0.004949 | 0.0534
318.15 K, x2 = 0.005774 | 0.0619
318.15 K, x2 = 0.006599 | 0.07
328.15 K, x2 = 0.000874 | 0.0114
328.15 K, x2 = 0.001747 | 0.0221
328.15 K, x2 = 0.002618 | 0.0321
328.15 K, x2 = 0.003488 | 0.0424
328.15 K, x2 = 0.004357 | 0.0526
328.15 K, x2 = 0.005223 | 0.0628
328.15 K, x2 = 0.006089 | 0.0729
328.15 K, x2 = 0.006952 | 0.0829

CCCCn1cc[n+](C)c1.F[P-](F)(F)(F)(F)F [1-butyl-3-methylimidazolium hexafluorophosphate] + CCCO
Conditions | excess molar enthalpy [kJ/mol]
288.15 K, x2 = 0.000953 | 0.00917
288.15 K, x2 = 0.001891 | 0.0173
288.15 K, x2 = 0.002836 | 0.0258
288.15 K, x2 = 0.003785 | 0.0345
288.15 K, x2 = 0.004734 | 0.0427
288.15 K, x2 = 0.005679 | 0.0513
288.15 K, x2 = 0.006625 | 0.0594
288.15 K, x2 = 0.007571 | 0.0676
298.15 K, x2 = 0.000901 | 0.00877
298.15 K, x2 = 0.001808 | 0.0173
298.15 K, x2 = 0.002711 | 0.0257
298.15 K, x2 = 0.003619 | 0.0338
298.15 K, x2 = 0.004527 | 0.0417
298.15 K, x2 = 0.005431 | 0.0496
298.15 K, x2 = 0.006336 | 0.0571
298.15 K, x2 = 0.007241 | 0.0647
308.15 K, x2 = 0.000957 | 0.00941
308.15 K, x2 = 0.001911 | 0.0179
308.15 K, x2 = 0.002864 | 0.0264
308.15 K, x2 = 0.003815 | 0.0348
308.15 K, x2 = 0.004765 | 0.0432
308.15 K, x2 = 0.005712 | 0.0515
308.15 K, x2 = 0.006658 | 0.0596
308.15 K, x2 = 0.007602 | 0.0676
318.15 K, x2 = 0.001129 | 0.0117
318.15 K, x2 = 0.002265 | 0.0233
318.15 K, x2 = 0.003396 | 0.0347
318.15 K, x2 = 0.004532 | 0.0456
318.15 K, x2 = 0.005668 | 0.057
318.15 K, x2 = 0.006798 | 0.0683
318.15 K, x2 = 0.007929 | 0.0794
318.15 K, x2 = 0.009059 | 0.0901

CCCCn1cc[n+](C)c1.F[P-](F)(F)(F)(F)F [1-butyl-3-methylimidazolium hexafluorophosphate] + CCO
Conditions | excess molar enthalpy [kJ/mol]
288.15 K, x2 = 0.001144 | 0.0087
288.15 K, x2 = 0.002285 | 0.0174
288.15 K, x2 = 0.003423 | 0.0263
288.15 K, x2 = 0.004559 | 0.0344
288.15 K, x2 = 0.005692 | 0.0435
288.15 K, x2 = 0.006823 | 0.0526
288.15 K, x2 = 0.007951 | 0.0615
288.15 K, x2 = 0.009076 | 0.0703
298.15 K, x2 = 0.001112 | 0.00861
298.15 K, x2 = 0.002231 | 0.0165
298.15 K, x2 = 0.003346 | 0.0242
298.15 K, x2 = 0.004465 | 0.0324
298.15 K, x2 = 0.005584 | 0.0392
298.15 K, x2 = 0.006698 | 0.047
298.15 K, x2 = 0.007812 | 0.0551
298.15 K, x2 = 0.008925 | 0.0626
308.15 K, x2 = 0.00114 | 0.0102
308.15 K, x2 = 0.002261 | 0.0179
308.15 K, x2 = 0.00339 | 0.0265
308.15 K, x2 = 0.004524 | 0.0351
308.15 K, x2 = 0.005658 | 0.0422
308.15 K, x2 = 0.006787 | 0.0498
308.15 K, x2 = 0.007915 | 0.0583
308.15 K, x2 = 0.009044 | 0.066
318.15 K, x2 = 0.001144 | 0.0106
318.15 K, x2 = 0.002294 | 0.0209
318.15 K, x2 = 0.00344 | 0.0287
318.15 K, x2 = 0.004591 | 0.0367
318.15 K, x2 = 0.005741 | 0.0462
318.15 K, x2 = 0.006886 | 0.0557
318.15 K, x2 = 0.008031 | 0.064
318.15 K, x2 = 0.009176 | 0.0729

CCO [ethanol] + O
298.15 K
Conditions | excess molar enthalpy [kJ/mol]
x1 = 0.000102 | -0.00104
x1 = 0.000206 | -0.00208
x1 = 0.000308 | -0.00312
x1 = 0.000412 | -0.00415
x1 = 0.000516 | -0.00518
x1 = 0.000619 | -0.00621
x1 = 0.000723 | -0.00722
x1 = 0.000827 | -0.00826
x1 = 0.000931 | -0.00927
x1 = 0.001034 | -0.0103
x1 = 0.001138 | -0.0113
x1 = 0.001241 | -0.0123
x1 = 0.001345 | -0.0133
x1 = 0.001448 | -0.0144
x1 = 0.001551 | -0.0154
x2 = 0.001021 | -0.00212
x2 = 0.00205 | -0.00424
x2 = 0.003074 | -0.0063
x2 = 0.004102 | -0.00835
x2 = 0.00513 | -0.0104
x2 = 0.006155 | -0.0124
x2 = 0.007179 | -0.0144
x2 = 0.008203 | -0.0163
x2 = 0.009225 | -0.0183
x2 = 0.01024 | -0.0202
x2 = 0.01125 | -0.0221
x2 = 0.01226 | -0.024
x2 = 0.01328 | -0.0259
x2 = 0.01428 | -0.0278
x2 = 0.01529 | -0.0296

CCCCCCC [heptane] + CCO
298.15 K
Conditions | excess molar enthalpy [kJ/mol]
x1 = 0.00013 | 0.00042
x1 = 0.000261 | 0.00084
x1 = 0.000392 | 0.00127
x1 = 0.000524 | 0.00168
x1 = 0.000655 | 0.00205
x1 = 0.000787 | 0.00246
x1 = 0.000919 | 0.00284
x1 = 0.001051 | 0.00321
x1 = 0.001183 | 0.00362
x1 = 0.001314 | 0.00399
x1 = 0.001445 | 0.00438
x1 = 0.001577 | 0.00475
x2 = 0.000794 | 0.0191
x2 = 0.001594 | 0.0368
x2 = 0.002391 | 0.0539
x2 = 0.003191 | 0.0701
x2 = 0.003992 | 0.0857
x2 = 0.00479 | 0.0999
x2 = 0.005589 | 0.113
x2 = 0.006387 | 0.125
x2 = 0.007185 | 0.136
x2 = 0.007976 | 0.146
x2 = 0.008768 | 0.155
x2 = 0.009558 | 0.163
